pIC50: −log10 of the molar value. Read-outs that look alike come from different tables or passages of the source.
System: capacitative calcium entry (CCE) in IP3 receptor-deficient strain of cell line DT40
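Note: intracellular Ca2+ read as 340/380 nm excitation ratio at 510 nm emission, stores emptied by thapsigargin without external Ca2+, then 2 mM CaCl2 added, inhibition of the ensuing Ca2+ rise.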

Experimental: (Assay of Capacitative Calcium Entry Inhibition)
Its 510 nm fluorescence obtained at 340 nm and 380 nm is measured and the fluorescence ratio F340/380 is measured to determine the intracellular calcium ion concentration. Next, thapsigargin (an endoplasmic reticulum calcium ion pump inhibitor) is allowed to act without calcium ion in an extracellular fluid to deplete an intracellular calcium store. Calcium chloride at a final concentration of 2 mM is added to the extracellular fluid. The IC50 value is calculated by estimating the effect of each compound on the degree of increase in the intracellular calcium concentration at the time of the addition.

**Q.** With `NCCOB(c1ccccc1)c1ccccc1` [(2-aminoethoxy)diphenylborane, reference compound] as the compound, how does the pIC50 read?
**A.** 5.30

**Q.** How did the inhibition (3 µM) turn out when `OB(c1ccccc1)c1ccc(Oc2ccc(B(O)c3ccccc3)cc2)cc1` [Example 1, Bis(4,4′-(phenylhydroxyboryl)phenyl) ether] was run?
**A.** 50%

**Q.** For `OB(c1ccccc1)c1cccc(COCc2cccc(B(O)c3ccccc3)c2)c1` [Example 4], which inhibition (0.1 µM) is on record?
**A.** 70%

**Q.** And the inhibition (0.3 µM)?
**A.** 95%

**Q.** What about the inhibition (1 µM) of the same compound?
**A.** 100%

**Q.** With `NCCOB(c1ccccc1)c1cccc(COCc2cccc(B(OCCN)c3ccccc3)c2)c1` [Example 5, Bis(3,3′-(phenylaminoethoxyboryl)benzyl) ether] as the compound, how does the inhibition (0.03 µM) read?
**A.** 30%

**Q.** And the inhibition (0.1 µM)?
**A.** 95%

**Q.** What about the inhibition (0.3 µM) of the same compound?
**A.** 100%

**Q.** With `OB(c1ccccc1)c1ccc(COCc2ccccc2B(O)c2ccccc2)cc1` [Example 12, (2-(Phenylhydroxyboryl)benzyl) (4-(phenylhydroxyboryl)benzyl) ether] as the compound, how does the inhibition (0.3 µM) read?
**A.** 10%

**Q.** And the inhibition (1 µM)?
**A.** 80%

**Q.** What about the inhibition (3 µM) of the same compound?
**A.** 100%

**Q.** For `NCCOB(c1ccccc1)c1ccc(COCc2cccc(B(OCCN)c3ccccc3)c2)cc1` [Example 13, (3-(Phenylaminoethoxyboryl)benzyl) (4-(phenylaminoethoxyboryl)benzyl) ether], which inhibition (0.1 µM) is on record?
**A.** 10%

**Q.** And the inhibition (0.2 µM)?
**A.** 80%

**Q.** What about the inhibition (0.3 µM) of the same compound?
**A.** 100%

**Q.** For `NCCOB(c1ccccc1)c1cccc(COCc2ccccc2B(OCCN)c2ccccc2)c1` [Example 15, (2-(Phenylaminoethoxyboryl)benzyl) (3-(phenylaminoethoxyboryl)benzyl) ether], which inhibition (0.3 µM) is on record?
**A.** 100%

**Q.** What about the inhibition (1 µM) of the same compound?
**A.** 100%

**Q.** And the inhibition (3 µM)?
**A.** 100%

**Q.** What does the source list for `Cc1ccc(B(OCCN)c2ccc(-c3ccc(B(OCCN)c4ccc(C)cc4)cc3)cc2)cc1` [Example 45, 4,4′-(4-Methylphenylaminoethoxyboryl)diphenyl]?
**A.** inhibition (1 µM): 20%; inhibition (3 µM): 100%

**Q.** With `OB(c1ccccc1)c1ccc(COc2ccc(B(O)c3ccccc3)cc2)cc1` [Example 51, (4-Phenylhydroxyborylphenyl) (4′-phenylhydroxyborylbenzyl) ether] as the compound, how does the inhibition (1 µM) read?
**A.** 20%

**Q.** What about the inhibition (3 µM) of the same compound?
**A.** 100%

**Q.** How did the inhibition (3 µM) turn out when `NCCOB(c1ccccc1)c1ccc(COc2ccc(B(OCCN)c3ccccc3)cc2)cc1` [Example 52, (4-Phenylaminoethoxyborylphenyl) (4′-phenylaminoethoxyborylbenzyl) ether] was run?
**A.** 100%

**Q.** For `NCCOB(c1ccc(COCCOc2ccc(B(OCCN)c3cccs3)cc2)cc1)c1cccs1` [Example 53, (4-(2-Thiopheneaminoethoxyboryl)phenoxyethyl) (4′-(2-thiopheneaminoethoxyboryl)benzyl) ether], which inhibition (1 µM) is on record?
**A.** 10%

**Q.** What does the source list for `OB(c1ccc(COc2ccc(B(O)c3ccc(C(F)(F)F)cc3)cc2)cc1)c1ccc(C(F)(F)F)cc1` [Example 54, (4-Trifluoromethylphenylhydroxyborylphenyl) (4′-trifluoromethylphenylhydroxyborylbenzyl) ether]?
**A.** inhibition (1 µM): 60%; inhibition (3 µM): 100%

**Q.** For `NCCOB(c1ccc(COc2ccc(B(OCCN)c3ccc(C(F)(F)F)cc3)cc2)cc1)c1ccc(C(F)(F)F)cc1` [Example 55], which inhibition (0.3 µM) is on record?
**A.** 0%

**Q.** And the inhibition (1 µM)?
**A.** 20%

**Q.** What about the inhibition (3 µM) of the same compound?
**A.** 100%

**Q.** Which results are given for `CC(C)(C)c1cc(B(OCCN)c2ccccc2)c2c(c1)C(C)(C)c1cc(C(C)(C)C)cc(B(OCCN)c3ccccc3)c1O2` [Example 60, 4,5-Di(phenylaminoethoxyboryl)-2,7-di-t-butyl-9,9-dimethylxanthrene]?
**A.** inhibition (1 µM): 20%; inhibition (3 µM): 100%

**Q.** With `CNCCOB(c1ccccc1)c1ccc(Oc2ccc(B(OCCNC)c3ccccc3)cc2)cc1` [Example 68, Bis(4,4′-(phenyl-N-methylaminoethoxyboryl)phenyl) ether] as the compound, how does the inhibition (0.3 µM) read?
**A.** 20%

**Q.** And the inhibition (1 µM)?
**A.** 80%

**Q.** For `CNCCOB(c1ccc(COc2ccc(B(OCCNC)c3ccc(C(F)(F)F)cc3)cc2)cc1)c1ccc(C(F)(F)F)cc1` [Example 84, (4′-Trifluoromethylphenyl-N-methylaminoethoxyboryl)-4-phenyl (4′-trifluoromethylphenyl-N-methylaminoethoxyboryl)-4-benzyl ether], which inhibition (1 µM) is on record?
**A.** 50%

**Q.** And the inhibition (3 µM)?
**A.** 100%

**Q.** What does the source list for `CN(C)CCOB(c1ccccc1)c1cccc(COCc2cccc(B(OCCN(C)C)c3ccccc3)c2)c1` [Example 85, Bis(3,3′-(phenyl-N,N-dimethylaminoethoxyboryl)benzyl) ether]?
**A.** inhibition (1 µM): 10%; inhibition (3 µM): 90%

**Q.** For `c1ccc(B(OCc2ccccn2)c2ccc(COCc3ccc(B(OCc4ccccn4)c4ccccc4)cc3)cc2)cc1` [Example 88, Bis(4,4′-(phenyl-2-pyridylmethoxyboryl)benzyl) ether], which inhibition (1 µM) is on record?
**A.** 95%

**Q.** And the inhibition (3 µM)?
**A.** 100%

**Q.** How did the inhibition (1 µM) turn out when `Cc1ccc(B(O)c2ccc(COCc3ccc(B(O)c4ccc(C)c(Cl)c4)cc3)cc2)cc1Cl` [Example 90, Bis(4,4′-(3-chloro-4-methylphenyl-hydroxyboryl)benzyl) ether] was run?
**A.** 20%

**Q.** What about the inhibition (3 µM) of the same compound?
**A.** 100%

**Q.** `COc1ccc(B(OCCN)c2ccc(COCc3ccc(B(OCCN)c4ccc(OC)cc4)cc3)cc2)cc1` [Example 94, Bis(4,4′-(p-methoxyphenyl-aminoethoxyboryl)benzyl) ether] was tested. Which inhibition (1 µM) did it give?
**A.** 0%

**Q.** What about the inhibition (3 µM) of the same compound?
**A.** 100%

**Q.** With `CNCCOB(c1ccc(COCc2ccc(B(OCCNC)c3ccc(OC)cc3)cc2)cc1)c1ccc(OC)cc1` [Example 95, Bis(4,4′-(p-methoxyphenyl-N-methylaminoethoxyboryl)benzyl) ether] as the compound, how does the inhibition (1 µM) read?
**A.** 80%

**Q.** What about the inhibition (3 µM) of the same compound?
**A.** 80%

**Q.** With `Cc1ccc(B(OCCN)c2ccc(COCc3ccc(B(OCCN)c4ccc(C)c(Cl)c4)cc3)cc2)cc1Cl` [Example 102, Bis(4,4′-(3-chloro-4-methylphenyl-aminoethoxyboryl)benzyl) ether] as the compound, how does the inhibition (1 µM) read?
**A.** 30%

**Q.** What about the inhibition (3 µM) of the same compound?
**A.** 100%

**Q.** How did the inhibition (1 µM) turn out when `CNCCOB(c1ccc(COCc2ccc(B(OCCNC)c3ccc(C)c(Cl)c3)cc2)cc1)c1ccc(C)c(Cl)c1` [Example 103, Bis(4,4′-(3-chloro-4-methylphenyl-N-methylaminoethoxyboryl)benzyl) ether] was run?
**A.** 30%

**Q.** What about the inhibition (3 µM) of the same compound?
**A.** 80%

**Q.** Which results are given for `Cc1ccc(B(OCCN(C)C)c2ccc(COCc3ccc(B(OCCN(C)C)c4ccc(C)c(Cl)c4)cc3)cc2)cc1Cl` [Example 104, Bis(4,4′-(3-chloro-4-methylphenyl-N,N-dimethylaminoethoxyboryl)benzyl) ether]?
**A.** inhibition (1 µM): 20%; inhibition (3 µM): 100%

**Q.** How did the inhibition (1 µM) turn out when `Cc1ccc(B(OCC2CCCCN2)c2ccc(COCc3ccc(B(OCC4CCCCN4)c4ccc(C)c(Cl)c4)cc3)cc2)cc1Cl` (centres unmarked) [Example 105, Bis(4,4′-(3-chloro-4-methylphenyl-2-piperidylmethyloxyboryl)benzyl) ether] was run?
**A.** 30%

**Q.** And the inhibition (3 µM)?
**A.** 100%

**Q.** What does the source list for `CN(C)CCOB(c1ccc(COCc2ccc(B(OCCN(C)C)c3ccc(C(F)(F)F)cc3)cc2)cc1)c1ccc(C(F)(F)F)cc1` [Example 106, Bis(4,4′-(p-trifluoromethylphenyl-N,N-dimethylaminoethoxyboryl)benzyl) ether]?
**A.** inhibition (1 µM): 30%; inhibition (3 µM): 100%

**Q.** Which inhibition (1 µM) does the source give for `NCCOB(c1ccc(COCc2ccc(B(OCCN)c3ccc(C(F)(F)F)cc3)cc2)cc1)c1ccc(C(F)(F)F)cc1` [Example 108, Bis(4,4′-(p-trifluoromethylphenyl-aminoethoxyboryl)benzyl) ether] here?
**A.** 20%

**Q.** And the inhibition (3 µM)?
**A.** 100%

**Q.** What does the source list for `CNCCOB(c1ccccc1)c1ccc(COc2ccc(B(OCCNC)c3ccccc3)cc2)cc1` [Example 109, (4-Phenyl-N-methylaminoethoxyborylphenyl) 4′-(N-methylaminoethoxyborylbenzyl) ether]?
**A.** inhibition (1 µM): 80%; inhibition (3 µM): 100%

**Q.** For `CN(C)CCOB(c1ccccc1)c1ccc(COc2ccc(B(OCCN(C)C)c3ccccc3)cc2)cc1` [Example 110, (4-Phenyl-N,N-dimethylaminoethoxyborylphenyl) 4′-(N,N-dimethylaminoethoxyborylbenzyl) ether], which inhibition (1 µM) is on record?
**A.** 20%

**Q.** What about the inhibition (3 µM) of the same compound?
**A.** 100%

**Q.** Which inhibition (1 µM) does the source give for `c1ccc(B(OCc2ccccn2)c2ccc(COc3ccc(B(OCc4ccccn4)c4ccccc4)cc3)cc2)cc1` [Example 111, (4-Phenyl-2-pyridylmethoxyborylphenyl) (4′-phenyl-2-pyridylmethoxyborylbenzyl) ether] here?
**A.** 20%

**Q.** And the inhibition (3 µM)?
**A.** 100%

**Q.** How did the inhibition (1 µM) turn out when `c1ccc(B(OCC2CCCN2)c2ccc(COCc3ccc(B(OCC4CCCN4)c4ccccc4)cc3)cc2)cc1` (centres unmarked) [Example 134, Bis(4,4′-(phenyl-2-pyrrolidinemethoxyboryl)benzyl) ether] was run?
**A.** 20%

**Q.** And the inhibition (3 µM)?
**A.** 100%

**Q.** `CCCCNCCOB(c1ccccc1)c1ccc(COCc2ccc(B(OCCNCCCC)c3ccccc3)cc2)cc1` [Example 136, Bis(4,4′-(phenyl-butylaminoethoxyboryl)benzyl) ether] was tested. Which inhibition (1 µM) did it give?
**A.** 30%

**Q.** What about the inhibition (3 µM) of the same compound?
**A.** 100%

**Q.** Which inhibition (1 µM) does the source give for `NCC(OB(c1ccccc1)c1cccc(COCc2cccc(B(OC(CN)c3ccccc3)c3ccccc3)c2)c1)c1ccccc1` (centres unmarked) [Example 150, Bis(3,3′-(phenyl-2-amino-1-phenylethoxyboryl)benzyl) ether] here?
**A.** 50%

**Q.** And the inhibition (3 µM)?
**A.** 100%

**Q.** Which results are given for `CNCCOB(c1ccccc1)c1cccc(COCc2cccc(B(OCCNC)c3ccccc3)c2)c1` [Example 151, Bis(3,3′-(phenyl-N-methylethoxyboryl)benzyl) ether]?
**A.** inhibition (1 µM): 60%; inhibition (3 µM): 100%

**Q.** `CC(CCNCCN)OB(c1ccccc1)c1cccc(COCc2cccc(B(OC(C)CCNCCN)c3ccccc3)c2)c1` (centres unmarked) [Example 152, Bis(3,3′-(phenyl-N-aminoethyl-1-methyl-3-aminopropoxyboryl)benzyl) ether] was tested. Which inhibition (1 µM) did it give?
**A.** 40%

**Q.** What about the inhibition (3 µM) of the same compound?
**A.** 80%

**Q.** How did the inhibition (1 µM) turn out when `CCCCNCCB(c1ccccc1)c1cccc(COCc2cccc(B(CCNCCCC)c3ccccc3)c2)c1` [Example 155, Bis(3,3′-(phenyl-N-butylaminoethylboryl)benzyl) ether] was run?
**A.** 95%

**Q.** What about the inhibition (3 µM) of the same compound?
**A.** 100%

**Q.** For `c1ccc(B(OCc2ccccn2)c2ccc(Oc3ccc(B(OCc4ccccn4)c4ccccc4)cc3)cc2)cc1` [Example 160, Bis(4,4′-(phenyl-2-pyridylmethoxyboryl)phenyl) ether], which inhibition (3 µM) is on record?
**A.** 0%

**Q.** And the inhibition (10 µM)?
**A.** 100%

**Q.** How did the inhibition (3 µM) turn out when `NC(COB(c1ccccc1)c1ccc(COCc2ccc(B(OCC(N)c3ccccc3)c3ccccc3)cc2)cc1)c1ccccc1` (centres unmarked) [Example 164, Bis(4,4′-(phenyl-2-phenyl-2-amino-ethoxyboryl)benzyl) ether] was run?
**A.** 100%

**Q.** What about the inhibition (10 µM) of the same compound?
**A.** 100%

**Q.** With “Bis(4,4′-(phenyl-N-methylpiperidine-methoxyboryl)benzyl) ether [Example 139]” as the compound, how does the inhibition (1 µM) read?
**A.** 40%

**Q.** And the inhibition (3 µM)?
**A.** 100%

From patent US8017809B2, “Bisboron compound” (Japan Science and Technology Agency, priority 2005, dated 2011)
